Blank lines part the entries; values can stand above or below the compound they belong to.
How the values were obtained:
[1] = biological target: T1, Human COX-1 (Homo sapiens, UniProt P23219); assay: COX-1 enzyme activity in human whole blood (A23187-stimulated, thromboxane B2 EIA); assay type: cell-based; conditions: 100 μM test compound
T1 construct: Human blood (≈50 mL) from male or female donors who had not received any aspirin or NSAIDs for 14 days was collected; endogenous in cells; host or cells: human whole blood from donors, heparinised, stimulated with calcium ionophore A23187
Protocol: (§1) The assay for COX-1 and COX-2 enzyme activity, in the human whole blood was performed as described in Brideau et al., Inflamm Res., 45: 68-74 (1996)). Human blood (≈50 mL) from male or female donors who had not received any aspirin or NSAIDs for 14 days was collected at two local area blood donor centers and placed in polypropylene syringes containing sodium heparin (20 units per mL blood, final concentration). The blood was transported to the laboratory on ice packs and used within 1.5 hours of collection. Upon receipt in the laboratory, the blood was allowed to come to room temperature for 15 minutes prior to distribution in 1 mL aliquots per well of 24 well tissue culture plates. The plates were then placed on a gently rotating platform shaker in a 5% CO2 incubator at 37° C. for 15 minutes. Test compounds were dissolved in DMSO, at 1000 fold the final desired concentration, and further diluted, as indicated, in DMSO. One μL of each dilution of the test compound was added per well, in duplicate wells; wells not receiving test compound (e.g., basal, background or control wells) received 1 μL DMSO.
(§2) To induce COX-2, lipopolysaccharide (LPS) from E. coli (LPS, serotype 026:B6 or serotype 0127:B8, Sigma Chemical Co., St. Louis, Mo., Catalogue No. L3755 or L3129, respectively) was added at 10 μg/mL (2 μL of 5 mg/mL LPS in DMSO) to appropriate wells 15 minutes after the addition of the test compound. (Basal or background wells not incubated with LPS received 2 μL of DMSO.) For the stimulation of COX-1, the calcium ionophore, A23187 (free acid from Sigma Chemical Co., St. Louis, Mo., Catalogue No. C7522) was added at 25 μM (1 μL of 25 mM stock in DMSO) to separate wells 4.5 hours after the addition of the test compound. (Again, basal, background or control wells not stimulated with A23187 received 1 μL of DMSO.) At 5 hours after the addition of the test compound, all incubations were terminated by placement on ice and the addition of 2 mM EGTA (100 μL of 20 mM EGTA, tetrasodium, in PBS (phosphate buffered saline) without Ca^++ and Mg^++, pH 7.2)). The resulting solutions, were transferred by polyethylene transfer pipettes to 15 mL polypropylene centrifuge tubes and centrifuged at 1200 g for 10 minutes at 4° C. One hundred μL of plasma was removed from each blood sample and added to 1 mL of methanol in new 15 mL polypropylene centrifuge tubes, vortexed, and stored overnight at −20° C. The next day, the samples were centrifuged at 2000 g for 10 minutes at 4° C. and the supernatants transferred to glass tubes and evaporated to dryness. The samples were assayed for thromboxane B2 using EIA kits supplied by Cayman Chemical Co. (Ann Arbor, Mich., Catalogue No. 519031) in duplicate wells after reconstitution with EIA Buffer and appropriate dilution (2000 fold for COX-1 and 500 fold for Cox-2 samples).
The % inhibition for COX-1 and COX-2 enzyme activity in human whole blood by the test compounds, at the indicated concentrations, are given in Table 1.

[2] = biological target: T2, Human COX-2 (Homo sapiens, UniProt P35354); assay: COX-2 enzyme activity in human whole blood (LPS-induced, thromboxane B2 EIA); assay type: cell-based
T2 construct: Human blood (≈50 mL) from male or female donors who had not received any aspirin or NSAIDs for 14 days was collected; endogenous in cells; host or cells: human whole blood from donors, heparinised, COX-2 induced with E. coli LPS
T2 sequence (P35354 18-604): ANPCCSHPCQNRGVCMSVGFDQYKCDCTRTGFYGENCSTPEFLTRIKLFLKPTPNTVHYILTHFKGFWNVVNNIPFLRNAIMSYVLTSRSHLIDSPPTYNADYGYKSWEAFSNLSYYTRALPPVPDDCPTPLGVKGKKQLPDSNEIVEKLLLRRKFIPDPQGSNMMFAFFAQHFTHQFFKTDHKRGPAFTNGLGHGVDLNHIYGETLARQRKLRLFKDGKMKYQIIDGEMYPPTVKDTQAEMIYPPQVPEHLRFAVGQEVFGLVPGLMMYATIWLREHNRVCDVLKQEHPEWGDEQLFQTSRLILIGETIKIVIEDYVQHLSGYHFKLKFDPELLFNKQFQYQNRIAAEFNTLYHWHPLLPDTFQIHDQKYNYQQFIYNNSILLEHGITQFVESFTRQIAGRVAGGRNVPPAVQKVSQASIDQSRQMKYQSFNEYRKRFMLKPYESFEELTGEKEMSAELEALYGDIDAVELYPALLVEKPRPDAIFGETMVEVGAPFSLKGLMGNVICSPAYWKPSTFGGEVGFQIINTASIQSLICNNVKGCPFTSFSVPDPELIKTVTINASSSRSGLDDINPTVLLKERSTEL
Protocol: as §1, with “Human” for “The assay for COX-1 and COX-2 enzyme activity, in the human whole blood was performed as described in Brideau et al., Inflamm Res., 45: 68-74 (1996)). Human”
as §2, with “(Basal” for “To induce COX-2, lipopolysaccharide (LPS) from E. coli (LPS, serotype 026:B6 or serotype 0127:B8, Sigma Chemical Co., St. Louis, Mo., Catalogue No. L3755 or L3129, respectively) was added at 10 μg/mL (2 μL of 5 mg/mL LPS in DMSO) to appropriate wells 15 minutes after the addition of the test compound. (Basal”, “dryness.” for “dryness. The samples were assayed for thromboxane B2 using EIA kits supplied by Cayman Chemical Co. (Ann Arbor, Mich., Catalogue No. 519031) in duplicate wells after reconstitution with EIA Buffer and appropriate dilution (2000 fold for COX-1 and 500 fold for Cox-2 samples).”

T1 sequence (P23219 24-599): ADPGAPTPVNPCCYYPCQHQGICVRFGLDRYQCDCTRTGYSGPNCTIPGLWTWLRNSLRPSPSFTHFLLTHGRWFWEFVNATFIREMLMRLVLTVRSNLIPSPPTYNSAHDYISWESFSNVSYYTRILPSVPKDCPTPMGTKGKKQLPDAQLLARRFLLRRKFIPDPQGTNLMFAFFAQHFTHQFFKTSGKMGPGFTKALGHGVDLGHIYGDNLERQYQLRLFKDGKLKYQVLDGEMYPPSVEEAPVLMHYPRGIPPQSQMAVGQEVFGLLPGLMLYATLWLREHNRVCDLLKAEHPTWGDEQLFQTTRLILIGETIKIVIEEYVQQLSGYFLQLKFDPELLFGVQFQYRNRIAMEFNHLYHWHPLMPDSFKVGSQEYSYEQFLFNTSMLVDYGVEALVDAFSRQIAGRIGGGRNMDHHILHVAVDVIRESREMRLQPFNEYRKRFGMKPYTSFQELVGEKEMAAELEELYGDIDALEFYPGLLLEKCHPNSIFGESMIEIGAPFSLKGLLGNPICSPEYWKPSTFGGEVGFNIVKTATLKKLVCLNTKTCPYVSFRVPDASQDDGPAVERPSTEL

Structure (SMILES): CS(=O)(=O)c1ccc(-c2cc(C(F)(F)F)cnc2C(C#N)c2ccccc2)cc1 (stereo not drawn) [Example 9b, 2-(3-(4-(methylsulfonyl)phenyl)-5-(trifluoromethyl)(2-pyridyl))-2-phenylethanenitrile]
inhibition at 100 µM [1]: -10%
inhibition at 1 µM ([2]; 1 μM test compound): 35%
inhibition at 10 µM ([2]; 10 μM test compound): 55%

Structure (SMILES): CS(=O)(=O)c1ccc(-c2ncccc2C(=O)c2cccc(F)c2)cc1 [Example 10c, 3-Fluorophenyl 2-(4-methylsulfonylphenyl)(3-pyridyl) ketone]
inhibition at 100 µM [1]: 5%
inhibition at 1 µM ([2]; 1 μM test compound): 55%
inhibition at 10 µM ([2]; 10 μM test compound): 50%

Structure (SMILES): CCOC(=O)c1cccc(C(=O)c2cccnc2-c2ccc(S(C)(=O)=O)cc2)c1 [Example 12b, Ethyl 3-((2-(4-(methylsulfonyl)phenyl)-3-pyridyl)carbonyl)benzoate]
melting point: 125 to 132 °C
inhibition at 100 µM [1]: 25%
inhibition at 1 µM ([2]; 1 μM test compound): 10%
inhibition at 10 µM ([2]; 10 μM test compound): 20%

Structure (SMILES): COC(=O)c1cc(-c2ccc(S(C)(=O)=O)cc2)n(Cc2ccccc2)n1 [Example 8, Methyl 5-(4-(methylsulfonyl)phenyl)-1-benzylpyrazole-3-carboxylate]
melting point: 142 to 143 °C
inhibition at 100 µM [1]: 55%
inhibition at 1 µM ([2]; 1 μM test compound): 15%
inhibition at 10 µM ([2]; 10 μM test compound): 25%

Structure (SMILES): CS(=O)(=O)c1ccc(-c2ncccc2C(=O)c2ccccn2)cc1 [Example 11b, 2-(4-(Methylsulfonyl)phenyl)(3-pyridyl) 2-pyridyl Ketone]
melting point: 143 to 147 °C
inhibition at 100 µM [1]: 0%
inhibition at 1 µM ([2]; 1 μM test compound): 0%
inhibition at 10 µM ([2]; 10 μM test compound): 15%

Structure (SMILES): CS(=O)(=O)c1ccc(-c2cc(C(F)(F)F)cnc2C(=O)c2ccccc2)cc1 [Example 9a, 3-(4-(Methylsulfonyl)phenyl)-5-(trifluoromethyl)(2-pyridyl) Phenyl Ketone]
melting point: 141 to 142 °C
inhibition at 100 µM [1]: 90%

Structure (SMILES): CS(=O)(=O)c1ccc(-c2cc(CO)nn2Cc2ccccc2)cc1 [Example 3c, 1-(3-(Hydroxymethyl)-1-benzylpyrazol-5-yl)-4-(methylsulfonyl)benzene]
inhibition at 100 µM [1]: 25%
inhibition at 1 µM ([2]; 1 μM test compound): 10%
inhibition at 10 µM ([2]; 10 μM test compound): 15%

Further lines, results first:

melting point: 44 to 47 °C
inhibition at 100 µM [1]: 40%
inhibition at 1 µM ([2]; 1 μM test compound): 35%
inhibition at 10 µM ([2]; 10 μM test compound): 75%
Structure (SMILES): CS(=O)(=O)c1ccc(-c2cc(/C=C/CO[N+](=O)[O-])nn2CC2CCCCC2)cc1 [Example 4e, 1-(3-((1E)-3-Nitrooxyprop-1-enyl)-1-(cyclohexylmethyl)pyrazol-5-yl)-4-(methylsulfonyl)benzene]

melting point: 76 to 77 °C
inhibition at 100 µM [1]: 90%
inhibition at 1 µM ([2]; 1 μM test compound): 75%
inhibition at 10 µM ([2]; 10 μM test compound): 100%
Structure (SMILES): CS(=O)(=O)c1ccc(-c2cc(CCCO[N+](=O)[O-])nn2CC2CCCCC2)cc1 [Example 5c, 1-(1-(Cyclohexylmethyl)-3-(3-(nitrooxy)propyl)pyrazol-5-yl)-4-(methylsulfonyl)benzene]

melting point: 98 to 99 °C
inhibition at 100 µM [1]: 25%
inhibition at 1 µM ([2]; 1 μM test compound): 10%
inhibition at 10 µM ([2]; 10 μM test compound): 65%
Structure (SMILES): CS(=O)(=O)c1ccc(-c2cc(CO[N+](=O)[O-])nn2CC2CCCCC2)cc1 [Example 1h, 1-(1-(Cyclohexylmethyl)-3-((nitrooxy)methyl)pyrazol-5-yl)-4-(methylsulfonyl)benzene]

inhibition at 100 µM [1]: 65%
inhibition at 1 µM ([2]; 1 μM test compound): 0%
inhibition at 10 µM ([2]; 10 μM test compound): 45%
Structure (SMILES): CS(=O)(=O)c1ccc(-c2cc(CO)nn2CC2CCCCC2)cc1 [Example 1g, 1-(1-(Cyclohexylmethyl)-3-(hydroxymethyl)pyrazol-5-yl)-4-(methylsulfonyl)benzene]

melting point: 136 to 138 °C
inhibition at 100 µM [1]: 30%
inhibition at 1 µM ([2]; 1 μM test compound): 70%
inhibition at 10 µM ([2]; 10 μM test compound): 100%
Structure (SMILES): C=Cc1cc(-c2ccc(S(C)(=O)=O)cc2)n(CC2CCCCC2)n1 [Example 6b, 1-(1-(Cyclohexylmethyl)-3-vinylpyrazol-5-yl)-4-(methylsulfonyl)benzene]

inhibition at 100 µM [1]: 65%
inhibition at 1 µM ([2]; 1 μM test compound): 25%
inhibition at 10 µM ([2]; 10 μM test compound): 65%
Structure (SMILES): CS(=O)(=O)c1ccc(-c2cc(COCCO)nn2CC2CCCCC2)cc1 [Example 2e, 4-(1-(Cyclohexylmethyl)-3-((2-hydroxyethoxy)methyl)pyrazol-5-yl)-1 (methylsulfonyl)benzene]

inhibition at 100 µM [1]: 90%
inhibition at 1 µM ([2]; 1 μM test compound): 45%
inhibition at 10 µM ([2]; 10 μM test compound): 90%
Structure (SMILES): CS(=O)(=O)c1ccc(-c2cc(CCCO)nn2CC2CCCCC2)cc1 [Example 5b, 1-(1-(Cyclohexylmethyl)-3-(3-hydroxypropyl)pyrazol-5-yl)-4-(methylsulfonyl)benzene]

COX-1 Inhibition (% at 100 μM) [1]: 5%
COX-2 Inhibition (% at 1 μM) ([2]; 1 μM test compound): 15%
COX-2 Inhibition (% at 10 μM) ([2]; 10 μM test compound): 30%
Structure (SMILES): COC(=O)/C=C/c1cc(-c2ccc(S(C)(=O)=O)cc2)n(CC2CCCCC2)n1 [Example 7, Methyl (2E)-3-(1-(cyclohexylmethyl)-5-(4-(methylsulfonyl)phenyl)pyrazol-3-yl) prop-2-enoate]

inhibition at 100 µM [1]: 50%
inhibition at 1 µM ([2]; 1 μM test compound): 25%
inhibition at 10 µM ([2]; 10 μM test compound): 45%
Structure (SMILES): CS(=O)(=O)c1ccc(-c2cc(/C=C/CO)nn2CC2CCCCC2)cc1 [Example 4d, 1-(3-((1E)-3-Hydroxyprop-1-enyl)-1-(cyclohexylmethyl)pyrazol-5-yl)-4-(methylsulfonyl)benzene]

Reference: patent US7244753B2, “Cyclooxygenase-2 selective inhibitors, compositions and methods of use” (NitroMed, Inc., priority 2002, dated 2007)
